Species on record: Rattus norvegicus
Assay: DrugMatrix - Regimen: Daily Repeat
Format: toxicity, organism-based, Sprague-Dawley
Parameters: regimen Daily Repeat, gender Male, age 6-8 weeks
Conditions: in vivo, po, 1100 mg/kg, route oral GAVAGE, dose level High, vehicle .5 % CMC; for ABSOLUTE BASOPHIL / ABSOLUTE EOSINOPHIL / ABSOLUTE LYMPHOCYTE / ABSOLUTE MONOCYTE / ABSOLUTE SEGMENTED NEUTROPHIL / BASOPHIL / EOSINOPHIL / ERYTHROCYTE COUNT / HEMATOCRIT / HEMOGLOBIN / LEUKOCYTE COUNT / LYMPHOCYTE / MEAN CORPUSCULAR HEMOGLOBIN / MEAN CORPUSCULAR HEMOGLOBIN CONCENTRATION / MONOCYTE / NEUTROPHIL / NUCLEATED RED BLOOD CELLS / PLATELET COUNT: tissue Blood; for ALANINE AMINOTRANSFERASE / ALBUMIN / ALKALINE PHOSPHATASE / ASPARTATE AMINOTRANSFERASE / BLOOD UREA NITROGEN / CARBON DIOXIDE / CHLORIDE / CHOLESTEROL / CREATINE PHOSPHOKINASE / CREATININE / GLUCOSE / LACTATE DEHYDROGENASE / LIPASE / PHOSPHORUS / POTASSIUM / SODIUM / TOTAL BILIRUBIN / TOTAL PROTEIN / URIC ACID: tissue Plasma

SMILES: C[C@H]1[C@H](NC(=O)/C(=N\OC(C)(C)C(=O)O)c2csc(N)n2)C(=O)N1S(=O)(=O)O [AZTREONAM]
- ABSOLUTE BASOPHIL (72 h, time 3 day): 0 CELLS/uL
- ABSOLUTE EOSINOPHIL (72 h, time 3 day): 113.67 CELLS/uL
- ABSOLUTE LYMPHOCYTE (72 h, time 3 day): 10636 CELLS/uL
- ABSOLUTE MONOCYTE (72 h, time 3 day): 74.67 CELLS/uL
- ABSOLUTE SEGMENTED NEUTROPHIL (72 h, time 3 day): 842.33 CELLS/uL
- BASOPHIL (72 h, time 3 day): 0%
- EOSINOPHIL (72 h, time 3 day): 1%
- ERYTHROCYTE COUNT (72 h, time 3 day): 5.33 x10E6/uL
- HEMATOCRIT (72 h, time 3 day): 34.77%
- HEMOGLOBIN (72 h, time 3 day): 12.97 G/DL
- LEUKOCYTE COUNT (72 h, time 3 day): 11.67 x10E3/uL
- LYMPHOCYTE (72 h, time 3 day): 91%
- MEAN CORPUSCULAR HEMOGLOBIN (72 h, time 3 day): 24.4 pg
- MEAN CORPUSCULAR HEMOGLOBIN CONCENTRATION (72 h, time 3 day): 37.3 G/DL
- MONOCYTE (72 h, time 3 day): 0.67%
- NEUTROPHIL (72 h, time 3 day): 7.33%
- NUCLEATED RED BLOOD CELLS (72 h, time 3 day): 0 /100WBC
- PLATELET COUNT (72 h, time 3 day): 1394 x10E3/uL
- ALANINE AMINOTRANSFERASE (72 h, time 3 day): 52 u/L
- ALBUMIN (72 h, time 3 day): 4.03 G/DL
- ALKALINE PHOSPHATASE (72 h, time 3 day): 364.67 u/L
- ASPARTATE AMINOTRANSFERASE (72 h, time 3 day): 79 u/L
- BLOOD UREA NITROGEN (72 h, time 3 day): 16.33 mg/dL
- CARBON DIOXIDE (72 h, time 3 day): 27 mmol/L
- CHLORIDE (72 h, time 3 day): 100.33 MEQ/L
- CHOLESTEROL (72 h, time 3 day): 72 mg/dL
- CREATINE PHOSPHOKINASE (72 h, time 3 day): 274.33 u/L
- CREATININE (72 h, time 3 day): 0.18 mg/dL
- GLUCOSE (72 h, time 3 day): 167.67 mg/dL
- LACTATE DEHYDROGENASE (72 h, time 3 day): 74.33 u/L
- LIPASE (72 h, time 3 day): 8.67 u/L
- PHOSPHORUS (72 h, time 3 day): 11.13 mg/dL
- POTASSIUM (72 h, time 3 day): 5.8 MEQ/L
- SODIUM (72 h, time 3 day): 142.4 MEQ/L
- TOTAL BILIRUBIN (72 h, time 3 day): 0.17 mg/dL
- TOTAL PROTEIN (72 h, time 3 day): 5.53 G/DL
- URIC ACID (72 h, time 3 day): 1.6 mg/dL
- ABSOLUTE BASOPHIL (120 h, time 5 day): 0 CELLS/uL
- ABSOLUTE EOSINOPHIL (120 h, time 5 day): 309 CELLS/uL
- ABSOLUTE LYMPHOCYTE (120 h, time 5 day): 13777 CELLS/uL
- ABSOLUTE MONOCYTE (120 h, time 5 day): 0 CELLS/uL
- ABSOLUTE SEGMENTED NEUTROPHIL (120 h, time 5 day): 1914 CELLS/uL
- BASOPHIL (120 h, time 5 day): 0%
- EOSINOPHIL (120 h, time 5 day): 1.67%
- ERYTHROCYTE COUNT (120 h, time 5 day): 5.78 x10E6/uL
- HEMATOCRIT (120 h, time 5 day): 35.83%
- HEMOGLOBIN (120 h, time 5 day): 13.5 G/DL
- LEUKOCYTE COUNT (120 h, time 5 day): 16 x10E3/uL
- LYMPHOCYTE (120 h, time 5 day): 87%
- MEAN CORPUSCULAR HEMOGLOBIN (120 h, time 5 day): 23.37 pg
- MEAN CORPUSCULAR HEMOGLOBIN CONCENTRATION (120 h, time 5 day): 37.7 G/DL
- MONOCYTE (120 h, time 5 day): 0%
- NEUTROPHIL (120 h, time 5 day): 11.33%
- NUCLEATED RED BLOOD CELLS (120 h, time 5 day): 0.33 /100WBC
- PLATELET COUNT (120 h, time 5 day): 1184.33 x10E3/uL
- ALANINE AMINOTRANSFERASE (120 h, time 5 day): 47.67 u/L
- ALBUMIN (120 h, time 5 day): 4.5 G/DL
- ALKALINE PHOSPHATASE (120 h, time 5 day): 346 u/L
- ASPARTATE AMINOTRANSFERASE (120 h, time 5 day): 72 u/L
- BLOOD UREA NITROGEN (120 h, time 5 day): 16 mg/dL
- CARBON DIOXIDE (120 h, time 5 day): 27 mmol/L
- CHLORIDE (120 h, time 5 day): 102.33 MEQ/L
- CHOLESTEROL (120 h, time 5 day): 65 mg/dL
- CREATINE PHOSPHOKINASE (120 h, time 5 day): 183.33 u/L
- CREATININE (120 h, time 5 day): 0.2 mg/dL
- GLUCOSE (120 h, time 5 day): 176.67 mg/dL
- LACTATE DEHYDROGENASE (120 h, time 5 day): 90 u/L
- LIPASE (120 h, time 5 day): 9.33 u/L
- PHOSPHORUS (120 h, time 5 day): 11.4 mg/dL
- POTASSIUM (120 h, time 5 day): 6.11 MEQ/L
- SODIUM (120 h, time 5 day): 146.47 MEQ/L
- TOTAL BILIRUBIN (120 h, time 5 day): 0.13 mg/dL
- TOTAL PROTEIN (120 h, time 5 day): 6 G/DL
- URIC ACID (120 h, time 5 day): 1.7 mg/dL

From ChEMBL document CHEMBL3885881, “DrugMatrix”
